In general, IC50 refers to the concentration that inhibits the measured activity by half.

The record followed here is US20100267750A1, “METHODS AND COMPOSITIONS FOR TREATING PAIN” (priority 2005, published 2010).

Data set [1] can be described thus: Plasma levels / pharmacokinetics in male Sprague-Dawley rat. The format is in vivo. The note with it: oral suspension 12 mg/kg. The procedure:
Compound 200 plasma levels were determined via HPLC/MS/MS following a single intravenous bolus dose of 0.9 mg/kg, an intraperitoneal dose of 12 mg/kg (suspension), and an oral dose of 12 mg/kg (suspension) in the male Sprague-Dawley rat. […] For intraperitoneal administration, Compound 200 was formulated as a uniform suspension in CMC (carboxymethylcellulose) at a target concentration of 1 mg/mL and administered at a dose volume of 10 mL/kg. For oral administration, Compound 200 was formulated as a uniform suspension in CMC (carboxymethylcellulose), at a target concentration of 1 mg/mL, administered by gavage, at a dose volume of 10 mL/kg, to the conscious, fasted, male Sprague-Dawley rat.

In data set [2] the test system is formalin induced paw flinching. As to the kind of experiment: Formalin model of pain. The format is in vivo, rat. The note with it: 2% formalin intraplantar, drug 15 min before. The procedure: As outlined above, the formalin model involves injection of a formalin solution intradermally or […]. Injection of formalin solution invokes a biphasic response, and thus provides a model for both nociceptive and inflammatory pain. The formalin model can be used to evaluate the effectiveness of an exemplary TRPA1 inhibitor in the treatment of pain. […] Briefly, the following protocol was followed. Male Holtzmann rats received intraplantar injections of 50 μL of 2% formalin. Paw flinching was detected by an automated sensor detecting movement of a small metal band placed on the injected hind paw. Drug or vehicle was administered approximately 15 minutes prior to the injection of formalin. The animal's response to injection of the irritant was measured by counting flinches per minutes during the Early Phase (the first 5 minutes following injection of formalin), during the Late Phase (approximately 30 minutes after injection of formalin), and during the intervening pain free phase. In FIG. 2, the right most bar for each data set (Early Phase and Late Phase) represents administration of vehicle alone and the left most bar represents administration of gabapentin. […]

In data set [3] the test system is CFA induced thermal hyperalgesia. Briefly: CFA model of inflammatory pain. The procedure: FIG. 4 summarizes data obtained following testing of Compound 200 in the CFA model. Naive rats were pretested for sensitivity to a heat stimulus in the Hargreaves apparatus. The next day, 100 μL of complete Freund's adjuvant (CFA) was injected into the plantar surface of the right hindpaw. Two days later, in the morning, the rats were again pretested. In the afternoon, rats were injected with either vehicle control or with drug (TRPA1 inhibitor 200 or the non-steroidal anti-inflammatory diclofenac). Drugs or vehicle were injected intraperitoneally, and 45 minutes later rats were tested for hyperalgesia by applying the heat source to the CFA injected and uninjected hindpaw and measuring latency to withdrawal.

The test system of data set [4] is bladder pressure in BOO rats. Briefly: Partial bladder outlet obstruction (BOO) model of incontinence. The note with it: intravesical infusion.
Excerpt: Efficacy of the varying doses of TRPA1 inhibitory compound were compared to controls administered excipients alone (sham control). Efficacy was also compared to rats administered a positive control, such as atropine.
Female Sprague Dawley rats were used in these studies. Rats underwent surgical partial bladder outlet obstruction (BOO) or sham surgery. Five weeks after BOO (or sham) surgery, an intravesical catheter was surgically implanted into the dome of the bladder for conducting urodynamic studies. One week after catheter implantation (6 weeks after BOO or sham), urodynamic studies began. […] An analytic balance beneath the wire-bottom animal cage measured the amount of urine voided during continuous cystometry. […]
For each CMG cycle, the following parameters were assessed: infused volume (the amount of saline or drug infused for each CMG cycle); void volume (the amount of urine voided by the animal for each CMG cycle); minimum pressure (minimum pressure during filling); threshold pressure (pressure prior to micturition when bladder pressure begins to rise steeply); average pressure (average pressure during filling and before threshold); maximum pressure; intermicturition interval (time between two subsequent voiding events); urine flow rate index.
Data set [5] relates to bradykinin induced tactile allodynia. As to the kind of experiment: Bradykinin induced pain model. The format is in vivo, rat. The procedure: As outlined above, the bradykinin model involves an intraplantar injection of a 5 ng/uL solution of bradykinin. Injection of the bradykinin solution typically causes a rapid sensitization. Sensitization is measured by assessing the thermal escape latency of the injected paw in response to a mild thermal stimulus delivered by a modified Hargreaves apparatus. FIGS. 1a and 1b summarize data obtained following testing of Compound 200 in the bradykinin model. This study examined the antinociceptive effects of 200 mg/kg, 50 mg/kg, and 12.5 mg/kg intraperitoneal Compound 200 on bradykinin induced tactile allodynia. […] Inhibitor or vehicle were injected intraperitoneally (IP). […] Throughout the study, general behavioral assessments were made during each period of observation. Observations included tactile allodynia (vocalization/agitation induced by light touch applied to the body surface), spontaneous vocalization, biting and chewing of body surface, loss of hind limb placing and stepping reflex, loss of hind limb weight bearing, and loss of righting reflex. Additionally, mechanical allodynia was assessed and measured. The results provided in FIGS. 1a and 1b are based on assessment of mechanical allodynia.

Data set [6] deals with carrageenan-induced inflammation (paw volume). As to the kind of experiment: Carrageenan model of acute inflammatory pain. The format is in vivo, rat. The note with it: IP, 30-60 minutes before testing. The procedure:
In this study, the drug administered was either a TRPA1 inhibitor or the non-steroidal anti-inflammatory diclofenac. Following administration of both carrageenan and drug or vehicle control, paw volume was measured and used to assess decreased inflammation.

In data set [7] the target is T1, hTRPA1 (Homo sapiens, UniProt O75762, K186N).
T1 construct: expressed in transfected cells; host or cells: HEK293/TREx (Invitrogen), stably transfected, tetracycline-induced
Briefly: hTRPA1 Fluo4 calcium flux assay in HEK293/TREx cells. The format is cell-based. The conditions noted are these: Table 2; read-out: hTRPA1 Fluor IC50. An excerpt: The assay depended on detection of the rise in intracellular Ca^2+ concentration ([Ca^2+]i) following channel activation in cells inducibly expressing the TRPA1 channel. Ca^2+ rise was quantified with the use of fluorescent Ca^2+ indicators that were loaded into cells and thereafter indicated the [Ca^2+]i. Ca^2+ influx followed activation of the TRPA1 channel. Compounds inhibiting the [Ca^2+]i rise were considered hits for further investigation.
These cells were maintained in the growth medium recommended by the manufacturer supplemented with 100 μg/ml hygromycin to promote retention of the TRPA1 construct. After growing to near confluency, cells were plated at a density of ˜25,000 cells/well in 384 well CellBind plates (Corning) in the presence of 1 μg/ml tetracycline, and allowed to grow for 20-30 hrs. A nearly confluent monolayer resulted. […] These controls defined a screening window, and “hits” were defined as those compounds inhibiting the fluorescence response by at least 40%. IC50 values were determined for compounds defined as “hits.” The Fluo4 cell-based fluorescence assay was used to determine the intracellular Ca^2+ concentration in the presence of varying drug concentration. […]

T1 sequence (O75762 whole entry K186N): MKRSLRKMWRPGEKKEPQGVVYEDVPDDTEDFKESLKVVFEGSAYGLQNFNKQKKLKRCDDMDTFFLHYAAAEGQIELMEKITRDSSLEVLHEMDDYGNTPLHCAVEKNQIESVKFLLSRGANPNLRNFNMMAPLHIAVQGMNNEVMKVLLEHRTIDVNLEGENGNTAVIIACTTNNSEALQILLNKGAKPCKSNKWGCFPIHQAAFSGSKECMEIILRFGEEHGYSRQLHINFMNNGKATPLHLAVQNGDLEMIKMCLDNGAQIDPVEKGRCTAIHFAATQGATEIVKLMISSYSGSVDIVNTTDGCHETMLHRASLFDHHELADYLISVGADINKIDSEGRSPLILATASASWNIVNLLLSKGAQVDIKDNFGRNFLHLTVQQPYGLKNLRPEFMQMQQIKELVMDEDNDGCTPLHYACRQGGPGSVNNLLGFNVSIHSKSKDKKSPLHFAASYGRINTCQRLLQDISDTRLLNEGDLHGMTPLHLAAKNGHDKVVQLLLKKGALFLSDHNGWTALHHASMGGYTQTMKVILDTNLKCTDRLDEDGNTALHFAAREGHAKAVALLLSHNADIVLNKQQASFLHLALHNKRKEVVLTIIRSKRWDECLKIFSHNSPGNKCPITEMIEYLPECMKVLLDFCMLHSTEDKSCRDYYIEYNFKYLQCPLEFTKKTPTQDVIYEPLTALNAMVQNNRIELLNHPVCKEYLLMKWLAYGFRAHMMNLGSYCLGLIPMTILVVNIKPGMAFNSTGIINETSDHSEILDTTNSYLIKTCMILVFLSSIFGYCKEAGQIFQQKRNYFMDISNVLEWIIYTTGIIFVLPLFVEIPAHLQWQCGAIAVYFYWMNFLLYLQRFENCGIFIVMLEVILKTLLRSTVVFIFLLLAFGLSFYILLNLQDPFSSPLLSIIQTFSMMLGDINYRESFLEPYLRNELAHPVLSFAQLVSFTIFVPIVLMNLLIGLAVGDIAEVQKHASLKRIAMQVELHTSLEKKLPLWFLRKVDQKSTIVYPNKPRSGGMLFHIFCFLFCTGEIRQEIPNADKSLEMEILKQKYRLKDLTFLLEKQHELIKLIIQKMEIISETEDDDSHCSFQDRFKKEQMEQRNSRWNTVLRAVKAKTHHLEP

On to `CC(C)c1ccc(NC(=O)Cn2cnc3c2c(=O)n(C)c(=O)n3C)cc1` [Compound 200, 2-(1,3-dimethyl-2,6-dioxo-1,2,3,6-tetrahydropurin-7-yl)-N-(4-isopropylphenyl)acetamide], for which, in data set [1], the “time at which Cmax occurred” value turned out to be 45 min. Moreover, in data set [2], the “flinches per minute, Early Phase” value is “substantially reduced” and the “flinches per minute, Late Phase” value is reported as “substantially reduced”. Also, in data set [3] (IP, tested 45 minutes later), the “control paw (uninflamed) sensation” value is “not affected”; the “efficacy compared with diclofenac” value is on record as “superior to diclofenac”; the “thermal hyperalgesia, CFA injected paw” value is given as “reduced thermal hyperalgesia”. In addition, the toxicity entry in data set [3] (rat, in vivo, 45 min) is recorded as “without toxicity”. For the same compound, in data set [4], the maximum bladder pressure entry is “decreased” and the threshold bladder pressure entry was “decreased”. In addition, in data set [5] (IP 12.5, 50, 200 mg/kg, 30 min before bradykinin), the “effect on mechanical threshold after bradykinin injection” value is given as “dose dependent effect”. Besides, in data set [5] (IP doses up to 200 mg/kg), the behavioral parameters result is on record as “no changes”. Further, the sedation entry in data set [5] (highest dose (200 mg/kg IP)) is reported as “only mild sedation was observed in 3 of 8 rats”. Also, in data set [6], the “paw volume (inflammation)” value is “decreased paw volume”.

`COC(=O)c1ccc(C)c(NC(=O)Cn2cnc3c2c(=O)n(C)c(=O)n3C)c1` [Compound 346]: the IC50 in data set [7] was ≤ 30 µM.
